The term pIC50 denotes −log10 of the IC50, conventionally taken in molar units. As a reminder, the fraction unbound is the share of the substance not bound to proteins or other matrix.

For one data set, the system named is MC38-hPDL1 cells. In words: In vitro cytotoxicity on MC38-hPDL1 cells (CellTiter-Glo). The format is cell-based, mouse. The note with it: for MC38-hPDL1 inhibition rate (%): 72 hours; for pIC50: Mus musculus, MC38-hPD-L1, 72 hours. The procedure, abridged:
(§1)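 Cells plated overnight at 37° C, 5% CO2, then exposed to serial compound dilutions for 72 hours. Viability measured by CellTiter-Glo luminescence; inhibition rate versus vehicle fitted by nonlinear regression to give IC50.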
(In ATP-based viability assays light output follows the ATP content of the culture.)

A short description of data set [1]: Plasma protein binding rate (equilibrium dialysis). The format is in vitro ADME. The following applies: mouse plasma, equilibrium dialysis 37° C. 5 hours. How it is done: Test Embodiment 8. Plasma Protein Binding Rate Experiment
The purpose of this experimental method was to detect the plasma protein binding of the embodiment compounds in plasma.
The frozen plasma was thawed at room temperature or in a water bath at 37° C., then centrifuged at 3500 rpm for 5 min, and the supernatant was taken.
Preparation of compound working solution: Stock solutions were diluted with DMSO to a final concentration of 1 mM.
2.5 μL of compound working solution was added to 497.5 μL of blank plasma to a final concentration of 5 μM, shaked and mixed well.
1) The equilibrium dialysis device was prepared, and the detection membrane device was put into the equilibrium dialysis 96-well plate;
2) 200 μL of the prepared plasma solution was added to the membrane, n=2;
3) another 5 μL of plasma solution was taken, diluted 10 times with 45 μL of blank plasma of the same species, and 200 μL of acetonitrile termination solution containing internal standard was added, and stored in a −20° C. refrigerator;
4) 350 μL of dialysate (100 mM phosphate buffer) was added outside the membrane;
5) the dialysis plate was sealed and incubated in a 37° C. water bath for 5 hours;
6) after dialysis, 5 μL was taken out from the sample hole in the membrane, and diluted 10 times with 45 μL of blank plasma of the same species; 50 μL of dialysate was taken out from the sample hole outside the membrane, and 200 μL of acetonitrile termination solution containing internal standard was added;
7) the supernatant was taken after sample centrifugation;

Data set [2] relates to C57 mice subcutaneous xenografts tumor of MC38-hPDL1 cells. Kind of data set: Tumor inhibition experiment on MC38-hPDL1 xenograft model. The format is in vivo. How it is done: Test Embodiment 10. Tumor Inhibition Experiment on MC38-hPDL1 Xenograft Model
To evaluate the antitumor activity of the test compounds against C57 mice subcutaneous xenografts tumor of MC38-hPDL1 cells.
MC38-hPDL1 cells were taken out from the cell bank, added to DMEM medium (DMEM+10% FBS) after recovery, and placed in a CO2 incubator (incubator temperature was 37° C., CO2 concentration was 5%) to culture. MC38-hPDL1 cells were collected when the number of cells increased to the required number of inoculation in vivo. Counted with an automatic cell counter, and resuspend the cells with PBS according to the counting results to prepare a cell suspension (density was 1×10^6/mL), and placed in an ice box for use.
6-8-week-old female C57 mice weighing approximately 18-22 grams were used. Mice were housed in SPF animal room, single cage, 4-5 mice per cage. All cages, litter and water were sterilized at high temperature before use, and all animals had free access to food and water. Before the start of the experiment, C57 mice were marked with a disposable ear tag for rats and mice, and the skin of the inoculation site was disinfected with 75% alcohol before inoculation. Each mouse was subcutaneously inoculated with 0.1 mL (containing 1*10^5 cells) of MC38-hPDL1 cells on the right back. […] […] Tumor volume was measured twice a week and mice were weighed twice a week, and tumor TGI (%) was calculated.
Tumor volume (mm^3), the calculation formula was: V=0.5*D*d*d, wherein D and d were the long and short diameters of the tumor, respectively.
When the tumor regressed, TGI(%)=[1−(average tumor volume at the end of administration of a treatment group-average tumor volume at the beginning of administration of this treatment group)/average tumor volume at the beginning of administration of this treatment group]×100%.

In data set [3] the test system is NFAT-luc2/PD1 Jurkat cells. In words: In vitro cytotoxicity on NFAT-luc2/PD1 Jurkat cells (CellTiter-Glo). In kind it is cell-based. The following applies: 72 hours; for pIC50: Homo sapiens, Jurkat. The procedure, abridged: as §1
Data set [4] can be described thus: Pharmacokinetic test of plasma and tumor of tumor-bearing nude mice. In kind it is in vivo. The note with it: tumor-bearing nude mice, p.o. 30 mg/kg; for Kp: female, mouse, tumor/plasma, po, read-out: Tumor plasma ratio. As for the experimental part: Test Embodiment 7. Pharmacokinetic Test of Plasma and Tumor of Tumor-Bearing Nude Mice
Taking tumor-bearing nude mice as the test animals, the pharmacokinetic behavior in the plasma and tumor of tumor-bearing nude mice of the following compound embodiments was studied when orally administered at a dose of 30 mg/kg.
Tumor-bearing nude mouse 21/embodiment, female, Shanghai B&K Laboratory Animal Co., Ltd., animal production license number (SCXK (Shanghai) 2013-0006 No. 311620400001794).
0.5% HPMC (1% Tween 80), dissolved by sonication, to prepare a clear solution or a homogeneous suspension.
Tumor-bearing nude mice, female; p.o. after overnight fasting, respectively, at a dose of 30 mg/kg, administered in a volume of 10 mL/kg.
Before and after administration of tumor-bearing nude mice, at 0, 1, 2, 4, 6, 8, 16 and 24 hours, 0.1 mL of blood was collected from the orbit, placed in an EDTA-K2 test tube, and centrifuged at 6000 rpm at 4° C. for 6 min to separate the plasma. After dissection, the tumor tissue was weighed and stored at −80° C.
1) Tumor tissue was homogenized with methanol and water at a ratio of 1:3, and then centrifuged to get the supernatant. 40 μL of tumor homogenate supernatant and 40 μL of plasma sample were added to 160 μL of acetonitrile for precipitation, and after mixing, centrifuged at 3500×g for 5 to 20 minutes.
2) 100 μL of the supernatant solution after treatment was taken for LC/MS/MS to analyze the concentration of the compounds to be tested.
2.7 Liquid Phase Analysis • Liquid phase condition: Shimadzu LC-20AD pump • MS conditions: AB Sciex API 4000 Mass Spectrometer • Chromatographic column: phenomenex Gemiu 5 μm C18 50×4.6 mm • Mobile phase: A solution was aqueous 0.1% formic acid solution, B solution was acetonitrile • Flow rate: 0.8 mL/min • Elution time: 0 to 4.0 minutes, the eluent was as follows:
The main parameters of pharmacokinetics were calculated with WinNonlin 8.2, and the results of the tumor-bearing nude mice pharmacokinetic experiments were shown in the following table: […]

pIC50: −log10 of the molar value. Some results are limits rather than exact numbers.

As for `COc1nc(-c2cccc(-c3cccc(NC(=O)c4nc5c(n4C)CCN(C)C5)c3Cl)c2Cl)ccc1CNC1COC1` [Embodiment 114, N-(2,2′-Dichloro-3′-(6-methoxy-5-((oxetan-3-ylamino)methyl)pyridin-2-yl)-[1,1′-biphenyl]-3-yl)-1,5-dimethyl-4,5,6,7-tetrahydro-1H-imidazo[4,5-c]pyridine-2-carboxamide], in the data set on MC38-hPDL1 cells, the “MC38-hPDL1 inhibition rate (%)” value was determined as 14.0%^ and the pIC50 is < 5.00. Also, the fraction unbound at 5 h, 5 μM in data set [1] came to 0.0033. Further, in data set [2] (60 mpk po bid, n=7), the “TGI (%) Day 15” value was 74.92%; the “Tumor volume (mm^3, Mean ± SD) Day 1” value was 69.72 ± 21.92 mm^3; the “Tumor volume (mm^3, Mean ± SD) Day 14” value turned out to be 140.27 ± 77.92 mm^3; the “ΔT/ΔC (%) Day 15” value was determined as 25.08%. In data set [3], the “Jurkat-PD1 inhibition rate (%)” value turned out to be 69.0%^ and the pIC50 was 5.12.
In data set [1], `COc1nc(-c2cccc(-c3cccc(NC(=O)c4nc5c(n4C)CCN(C)C5)c3Cl)c2Cl)ccc1CN1CC2(C1)CN(C(C)=O)C2` [Embodiment 123, N-(3′-(5-((6-Acetyl-2,6-diazaspiro[3.3]heptan-2-yl)methyl)-6-methoxypyridin-2-yl)-2,2′-dichloro-[1,1′-biphenyl]-3-yl)-1,5-dimethyl-4,5,6,7-tetrahydro-1H-imidazo[4,5-c]pyridine-2-carboxamide] displayed a fraction unbound at 5 h, 5 μM of 0.0095. In addition, in data set [2] (10 mpk po bid, n=8), the “TGI (%) Day 15” value worked out at 63.70%; the “Tumor volume (mm^3, Mean ± SD) Day 1” value turned out to be 75.93 ± 26.17 mm^3; the “Tumor volume (mm^3, Mean ± SD) Day 14” value turned out to be 644.86 ± 398.92 mm^3; the “ΔT/ΔC (%) Day 15” value turned out to be 36.30%. In data set [2] (30 mpk po qd, n=8), the “TGI (%) Day 15” value is on record as 67.62%; the “Tumor volume (mm^3, Mean ± SD) Day 1” value is reported as 75.50 ± 25.70 mm^3; the “Tumor volume (mm^3, Mean ± SD) Day 14” value amounted to 582.87 ± 359.11 mm^3; the “ΔT/ΔC (%) Day 15” value was found to be 32.38%. Also, in data set [4], the Kp came to 2.8, the “Drug concentration in plasma” value came out at 821 ng/mL and the “Drug concentration in tumor” value was determined as 2285 ng/mL.
Take `COc1nc(-c2cccc(-c3cccc(NC(=O)c4nc5c(n4C)CCN(C)C5)c3Cl)c2Cl)cnc1CN1CC2(C1)CN(C(C)=O)C2` [Embodiment 152, N-(3′-(5-((6-Acetyl-2,6-diazaspiro[3.3]heptan-2-yl)methyl)-6-methoxypyrazin-2-yl)-2,2′-dichloro-[1,1′-biphenyl]-3-yl)-1,5-dimethyl-4,5,6,7-tetrahydro-1H-imidazo[4,5-c]pyridine-2-carboxamide]: in the data set on MC38-hPDL1 cells, the “MC38-hPDL1 inhibition rate (%)” value stood at 15% and the pIC50 was < 5.00. Besides, the free fraction (fraction unbound) at 5 h, 5 μM in data set [1] turned out to be 0.0181. Moreover, in data set [4], the Kp amounted to 4.6, the “Drug concentration in plasma” value is reported as 153 ng/mL and the “Drug concentration in tumor” value came to 707 ng/mL. Further, in data set [3], the “Jurkat-PD1 inhibition rate (%)” value came to 97% and the pIC50 was 5.35.

(Values after patent US20230105212A1, “BIPHENYL DERIVATIVE INHIBITOR, PREPARATION METHOD THEREFOR AND USE THEREOF” (SHANGHAI HANSOH BIOMEDICAL CO., LTD., priority 2020, published 2023).)
